The text below walks through data of the NIST ThermoML archive (doi:10.1021/je400076x).

Numbers after ± are expanded uncertainties.

The conditions of the data set: Crystal; DTA.

Turning to `CCCCn1cc[n+](C)c1.[Cl-]` [1-butyl-3-methylimidazolium chloride], the Normal melting temperature is 60.30 ± 5 °C.
